{
  "source": "paper PMC12832182",
  "about": "(Science (New York, N.Y.), 2025)",
  "molecular_target": "T1, non-Cathepsin L-processed, but self-cleaved enzyme (LyLAP) (Homo sapiens, UniProt Q6P4A8)",
  "T1 sequence (Q6P4A8 39-227)": "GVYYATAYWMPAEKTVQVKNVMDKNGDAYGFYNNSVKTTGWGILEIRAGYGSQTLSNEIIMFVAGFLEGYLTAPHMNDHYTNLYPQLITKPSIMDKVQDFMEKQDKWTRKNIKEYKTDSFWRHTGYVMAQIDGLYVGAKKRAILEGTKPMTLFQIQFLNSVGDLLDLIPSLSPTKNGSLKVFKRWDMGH",
  "T1 sequence (Q6P4A8 228-553)": "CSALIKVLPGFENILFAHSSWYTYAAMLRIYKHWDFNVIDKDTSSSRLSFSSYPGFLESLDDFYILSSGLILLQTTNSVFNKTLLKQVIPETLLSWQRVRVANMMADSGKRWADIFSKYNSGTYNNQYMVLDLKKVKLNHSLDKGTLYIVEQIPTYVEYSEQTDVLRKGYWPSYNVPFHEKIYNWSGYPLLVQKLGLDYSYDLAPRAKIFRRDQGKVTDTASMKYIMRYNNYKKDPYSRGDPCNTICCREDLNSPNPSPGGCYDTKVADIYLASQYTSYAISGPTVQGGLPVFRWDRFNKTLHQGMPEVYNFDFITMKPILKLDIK",
  "experiment": "fluorogenic AMC release",
  "assay_type": "biochemical",
  "settings": "lysosomal pH buffer pH 4.5, 37°C; without cathepsin L preactivation",
  "data": [
    {"compound": "Cc1cc(=O)oc2cc(NC(=O)[C@@H](N)CC(C)C)ccc12", "note": "[Leu-AMC, L-Leucine-7-amido-4-methylcoumarin]", "values": [
      {"measurement": "fluorogenic AMC release", "value": "increased catalysis toward single amino acid substrates and, more substantially, toward tripeptide substrates"}
    ]}
  ]
}
